# System: peptide-specific IgG in sera of cancer patients and healthy donors
# Experiment: Measurement of anti-peptide IgG in plasma by LUMINEX multiplexed flow cytometric assay
# Type: binding, human
# Protocol: The levels of anti-peptide immunoglobulin G (IgG) were measured by the LUMINEX™ system (multiplexed flow cytometric assay) as previously reported (Komatsu N, Shichijo S, Nakagawa M, Itoh K. New multiplexed flow cytometric assay to measure anti-peptide antibody: a novel tool for monitoring immune responses to peptides used for immunization. Scand J Clin Lab Invest 2004; 64:1-11). In brief, plasma was incubated with 25 μl of peptide-coupled color-coded beads for 2 hr at room temperature on a plate shaker. After incubation, the mixture was washed with a vacuum manifold apparatus and incubated with 100 μl of biotinylated goat anti-human IgG (γ chain-specific)(BA-3080, Vector Laboratories, Burlingame, Calif., USA) for 1 h at room temperature. The plate was then washed, followed by the addition of 100 μl of streptavidin-PE (S-866, Molecular Probes, Eugene, Oreg., USA) into wells, and was incubated for 30 min at room temperature on a plate shaker. The bound beads were washed three times followed by the addition of 100 μl of Tween-PBS into each well. Fifty μl of sample was detected using the LUMINEX™ system (multiplexed flow cytometric assay). To confirm the specificity of IgG to a SCCA peptide, sample plasma was cultured in plates coated with a corresponding SCCA peptide, or with an irrelevant SCCA peptide. After the operation was repeated three times, the levels of the corresponding SCCA peptide-specific IgG in the resulting supernatant were determined by the LUMINEX™ system (multiplexed flow cytometric assay).
# These 9 SCCA-derived peptides were screened based on their ability to be recognized by IgG in cancer patients. Peptide-specific IgG was measured by a multiplexed flow cytometric assay (LUMINEX™ (multiplexed flow cytometric assay)). The plasma samples were derived from 35 uterine cervical SCC patients, 10 breast adenocarcinoma patients, 10 pancreatic adenocarcinoma patients, 10 gastric adenocarcinoma, and 6 colon adenocarcinoma patients. The level of fluorescence intensity was judged to be significant when exceeded 100 at an 1/100 dilution.
sequence,measurement,setting,value
"KFMFDLFQQF (SCCA 10-19 peptide) [SCCA-derived peptide, position 10-19]",Total: healthy donors with significant peptide-reactive IgG / donors tested,"10 healthy donors, significant when fluorescence intensity exceeded 100 at 1/100 dilution",1/10
same,Total: cancer patients with significant peptide-reactive IgG / patients tested,"71 cancer patients, significant when fluorescence intensity exceeded 100 at 1/100 dilution",12/71
same,Fluorescence intesity,"serum of Breast Ca. patient #36, 1:100 dilution",66
same,Fluorescence intesity,"serum of Breast Ca. patient #37, 1:100 dilution",0
same,Fluorescence intesity,"serum of Breast Ca. patient #38, 1:100 dilution",27
same,Fluorescence intesity,"serum of Breast Ca. patient #39, 1:100 dilution",38
same,Fluorescence intesity,"serum of Breast Ca. patient #40, 1:100 dilution",0
same,Fluorescence intesity,"serum of Breast Ca. patient #41, 1:100 dilution",201
same,Fluorescence intesity,"serum of Breast Ca. patient #42, 1:100 dilution",0
same,Fluorescence intesity,"serum of Breast Ca. patient #43, 1:100 dilution",44
same,Fluorescence intesity,"serum of Breast Ca. patient #44, 1:100 dilution",18
same,Fluorescence intesity,"serum of Breast Ca. patient #45, 1:100 dilution",55
same,Fluorescence intesity,"serum of Colon Ca. patient #66, 1:100 dilution",5
same,Fluorescence intesity,"serum of Colon Ca. patient #67, 1:100 dilution",79
same,Fluorescence intesity,"serum of Colon Ca. patient #68, 1:100 dilution",0
same,Fluorescence intesity,"serum of Colon Ca. patient #69, 1:100 dilution",2
same,Fluorescence intesity,"serum of Colon Ca. patient #70, 1:100 dilution",17
same,Fluorescence intesity,"serum of Colon Ca. patient #71, 1:100 dilution",6
same,Fluorescence intesity,"serum of Gastric Ca. patient #56, 1:100 dilution",38
same,Fluorescence intesity,"serum of Gastric Ca. patient #57, 1:100 dilution",11
same,Fluorescence intesity,"serum of Gastric Ca. patient #58, 1:100 dilution",0
same,Fluorescence intesity,"serum of Gastric Ca. patient #59, 1:100 dilution",177
same,Fluorescence intesity,"serum of Gastric Ca. patient #60, 1:100 dilution",4
same,Fluorescence intesity,"serum of Gastric Ca. patient #61, 1:100 dilution",81
same,Fluorescence intesity,"serum of Gastric Ca. patient #62, 1:100 dilution",0
same,Fluorescence intesity,"serum of Gastric Ca. patient #63, 1:100 dilution",0
same,Fluorescence intesity,"serum of Gastric Ca. patient #64, 1:100 dilution",9
same,Fluorescence intesity,"serum of Gastric Ca. patient #65, 1:100 dilution",0
same,Fluorescence intesity,"serum of Healthy Donor #1, 1:100 dilution",0
same,Fluorescence intesity,"serum of Healthy Donor #2, 1:100 dilution",68
same,Fluorescence intesity,"serum of Healthy Donor #3, 1:100 dilution",0
same,Fluorescence intesity,"serum of Healthy Donor #4, 1:100 dilution",0
same,Fluorescence intesity,"serum of Healthy Donor #5, 1:100 dilution",8
same,Fluorescence intesity,"serum of Healthy Donor #6, 1:100 dilution",0
same,Fluorescence intesity,"serum of Healthy Donor #7, 1:100 dilution",0
same,Fluorescence intesity,"serum of Healthy Donor #8, 1:100 dilution",345
same,Fluorescence intesity,"serum of Healthy Donor #9, 1:100 dilution",34
same,Fluorescence intesity,"serum of Healthy Donor #10, 1:100 dilution",0
same,Fluorescence intesity,"serum of Pancreas Ca. patient #46, 1:100 dilution",0
same,Fluorescence intesity,"serum of Pancreas Ca. patient #47, 1:100 dilution",12
same,Fluorescence intesity,"serum of Pancreas Ca. patient #48, 1:100 dilution",206
same,Fluorescence intesity,"serum of Pancreas Ca. patient #49, 1:100 dilution",0
same,Fluorescence intesity,"serum of Pancreas Ca. patient #50, 1:100 dilution",311
same,Fluorescence intesity,"serum of Pancreas Ca. patient #51, 1:100 dilution",0
same,Fluorescence intesity,"serum of Pancreas Ca. patient #52, 1:100 dilution",172
same,Fluorescence intesity,"serum of Pancreas Ca. patient #53, 1:100 dilution",0
same,Fluorescence intesity,"serum of Pancreas Ca. patient #54, 1:100 dilution",11
same,Fluorescence intesity,"serum of Pancreas Ca. patient #55, 1:100 dilution",0
same,Fluorescence intesity,"serum of Uterine cervical Ca. patient #1, 1:100 dilution",25
same,Fluorescence intesity,"serum of Uterine cervical Ca. patient #2, 1:100 dilution",21
same,Fluorescence intesity,"serum of Uterine cervical Ca. patient #3, 1:100 dilution",11
same,Fluorescence intesity,"serum of Uterine cervical Ca. patient #4, 1:100 dilution",5
same,Fluorescence intesity,"serum of Uterine cervical Ca. patient #5, 1:100 dilution",14
same,Fluorescence intesity,"serum of Uterine cervical Ca. patient #6, 1:100 dilution",786
same,Fluorescence intesity,"serum of Uterine cervical Ca. patient #7, 1:100 dilution",14
same,Fluorescence intesity,"serum of Uterine cervical Ca. patient #8, 1:100 dilution",38
same,Fluorescence intesity,"serum of Uterine cervical Ca. patient #9, 1:100 dilution",76
same,Fluorescence intesity,"serum of Uterine cervical Ca. patient #10, 1:100 dilution",16
same,Fluorescence intesity,"serum of Uterine cervical Ca. patient #11, 1:100 dilution",21
same,Fluorescence intesity,"serum of Uterine cervical Ca. patient #12, 1:100 dilution",41
same,Fluorescence intesity,"serum of Uterine cervical Ca. patient #13, 1:100 dilution",22
same,Fluorescence intesity,"serum of Uterine cervical Ca. patient #14, 1:100 dilution",22
same,Fluorescence intesity,"serum of Uterine cervical Ca. patient #15, 1:100 dilution",154
same,Fluorescence intesity,"serum of Uterine cervical Ca. patient #16, 1:100 dilution",225
same,Fluorescence intesity,"serum of Uterine cervical Ca. patient #17, 1:100 dilution",50
same,Fluorescence intesity,"serum of Uterine cervical Ca. patient #18, 1:100 dilution",45
same,Fluorescence intesity,"serum of Uterine cervical Ca. patient #19, 1:100 dilution",67
same,Fluorescence intesity,"serum of Uterine cervical Ca. patient #20, 1:100 dilution",107
same,Fluorescence intesity,"serum of Uterine cervical Ca. patient #21, 1:100 dilution",22
same,Fluorescence intesity,"serum of Uterine cervical Ca. patient #22, 1:100 dilution",19
same,Fluorescence intesity,"serum of Uterine cervical Ca. patient #23, 1:100 dilution",78
same,Fluorescence intesity,"serum of Uterine cervical Ca. patient #24, 1:100 dilution",2277
same,Fluorescence intesity,"serum of Uterine cervical Ca. patient #25, 1:100 dilution",19
same,Fluorescence intesity,"serum of Uterine cervical Ca. patient #26, 1:100 dilution",88
same,Fluorescence intesity,"serum of Uterine cervical Ca. patient #27, 1:100 dilution",33
same,Fluorescence intesity,"serum of Uterine cervical Ca. patient #28, 1:100 dilution",228
same,Fluorescence intesity,"serum of Uterine cervical Ca. patient #29, 1:100 dilution",15
same,Fluorescence intesity,"serum of Uterine cervical Ca. patient #30, 1:100 dilution",44
same,Fluorescence intesity,"serum of Uterine cervical Ca. patient #31, 1:100 dilution",107
same,Fluorescence intesity,"serum of Uterine cervical Ca. patient #32, 1:100 dilution",21
same,Fluorescence intesity,"serum of Uterine cervical Ca. patient #33, 1:100 dilution",92
same,Fluorescence intesity,"serum of Uterine cervical Ca. patient #34, 1:100 dilution",17
same,Fluorescence intesity,"serum of Uterine cervical Ca. patient #35, 1:100 dilution",17

# Source: patent US8030443B2, “Squamous cell carcinoma antigen-derived peptide binding to HLA-A24 molecule” (Kurume University, priority 2005, dated 2011)
